{
  "source": "paper PMC9975039",
  "about": "(Oncogene, 2023)",
  "target": "T1, AKR1C3 (Homo sapiens, UniProt P42330)",
  "T1 sequence (P42330 1-323)": "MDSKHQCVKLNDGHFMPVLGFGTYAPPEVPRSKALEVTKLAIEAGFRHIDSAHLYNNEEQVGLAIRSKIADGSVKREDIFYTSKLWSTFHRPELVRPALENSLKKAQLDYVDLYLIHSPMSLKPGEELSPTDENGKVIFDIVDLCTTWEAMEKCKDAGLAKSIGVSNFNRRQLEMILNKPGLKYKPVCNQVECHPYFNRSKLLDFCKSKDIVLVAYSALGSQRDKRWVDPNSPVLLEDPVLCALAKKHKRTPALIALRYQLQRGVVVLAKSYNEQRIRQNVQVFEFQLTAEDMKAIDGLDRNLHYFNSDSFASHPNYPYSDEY",
  "test": "S-tetralol oxidation assay, recombinant AKR1C3, absorbance at […] nm",
  "format": "biochemical",
  "data": [
    {"smiles": "NS(=O)(=O)c1ccc(-n2nc(CCCNC(=O)Nc3ccc(C(F)(F)F)cc3)cc2-c2ccccc2)cc1", "note": "[PTUPB, 4-(5-phenyl-3-{3-[3-(4-trifluoromethyl-phenyl)-ureido]-propyl}-pyrazol-1-yl)-benzenesulfonamide]", "values": [
      {"measurement": "IC50", "result": "~0.065", "unit": "µM"}
    ]}
  ]
}
